The text below walks through data of US20230066011A1, “PYRROLOPYRIMIDINE DERIVATIVE, AND PHARMACEUTICAL COMPOSITION FOR PREVENTING OR TREATING PROTEIN KINASE-RELATED DISEASE COMPRISING SAME AS ACTIVE INGREDIENT” (VORONOI CO., LTD., priority 2019, published 2023).

In one assay the test system is IL-6. Kind of assay: Inhibition of LPS-induced IL-6 secretion of THP-1 monocytes (ELISA). The assay is classed as cell-based, human. The following applies: Homo sapiens, THP-1; compound 0.5 μM, LPS 500 ng/mL, 24 hours; read-out: THP1/IL6 (% inhib). As to the method: (§1) To evaluate an inhibitory effect on cytokine secretion of monocytes, THP-1 cells (ATCC, #TIB-202) as a human-derived monocyte line were cultured in an RPMI-1640 (Hyclone, SH30027.01) medium supplemented with 10% fetal bovine serum (Hyclone, SH30084.03), 1% penicillin streptomycin (Welgene, LS202-02), and 50 μM 2-mercaptoethanol (Gibco, #21985023). In the test, the cells were seeded in a 48-well plate (SPL, #30048) at a density of 1.5 to 2×10^5 cells/250 μL per well, and cultured at 37° C. for 16 hours in a 5% CO2 incubator. Thereafter, the compound was diluted with DMSO so that the final concentration of the compound was 0.5 μM. Then, the cells were treated with the diluted compound before an hour of treatment with lipopolysaccharides (LPS) (Sigma, #L6529). After the treatment with the compound, the cells were treated with LPS so that the final concentration was 500 ng/mL. Then, a cell culture broth was collected after 24 hours of culture, and levels of cytokine IL-6 (R&D Systems, #D6050) and TNF-α (R&D Systems, #DTA00D) comprised in the culture broth were measured using respective ELISA kits. After an experiment was performed according to the manufacturer's guidelines, cell analysis was performed by measuring the optical density at 450 nm using a microplate reader.

The next assay addresses T1, human GST-DYRK1A (Homo sapiens, UniProt Q13627).
T1 construct: purified human GST-DYRK1A (full length, Thermo Scientifics) enzyme; purchased Thermo Scientifics
Kind of assay: GST-DYRK1A enzyme inhibition, ADP-Glo kinase assay. Conditions: ATP 10 μM, GST-DYRK1A full length, read-out: DYRK1 IC50. The assay is classed as biochemical. Summed up:
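Full-length enzyme (10 ng) was incubated with 10 μM ATP and a specific substrate for 1 h at 25 °C in 40 mM Tris-HCl pH 7.4, 20 mM MgCl2, 0.5 mg/mL BSA, 50 μM DTT. Luminescence was read against a solvent control, and IC50 values were derived from 3 data sets.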
For orientation: ADP-Glo turns the ADP formed in a reaction into a luminescent signal.

In the next assay the target is LRRK2 (Homo sapiens, UniProt Q5S007). Kind of assay: LRRK2 enzyme inhibition, ADP-Glo kinase assay. The following applies: ATP 10 μM. The assay is classed as biochemical. Further details: purchased Invitrogen PR8604B. The method, boiled down:
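ADP-Glo luminescent read-out of ADP formed by purified human LRRK2 enzyme (25 ng), 10 μM ATP, 0.2 μg substrate, 25° C for 2 h, Tris-HCl pH 7.4 buffer with MgCl2, BSA, DTT. Inhibition versus untreated solvent control over twelve final concentrations (50 μM downward) gives IC50.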

Another assay concerns the target T2, human GST-CLK1 (Homo sapiens, UniProt P49759).
T2 construct: purified human GST-CLK1 (129-end, SignalChem) enzyme; purchased SignalChem
The assay is described as follows: GST-CLK1 enzyme inhibition, ADP-Glo kinase assay. The class given is biochemical. Conditions: ATP 10 μM, GST-CLK1 129-end. The method, boiled down:
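ADP-Glo luminescence read-out, relative to untreated solvent control, gave IC50 (nM) from triplicate data sets. Reactions ran an hour at 25° C with 3 ng GST-CLK1 (residues 129-end), 10 μM ATP and specific substrate in Tris-HCl pH 7.4 buffer with MgCl2, BSA and DTT.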

The next assay deals with TNF-α. The assay is described as follows: Inhibition of LPS-induced TNF-α secretion of THP-1 monocytes (ELISA). Conditions: Homo sapiens, THP-1; compound 0.5 μM, LPS 500 ng/mL, 24 hours; read-out: THP-1/TNF-α (% inhib). The class given is cell-based, human. As to the method: as §1
(In general: In an ELISA, binding on a coated surface is turned into a signal by an enzyme label.)

In the next assay the target is LRRK2 (G2019S) (Homo sapiens, UniProt Q5S007, G2019S). The assay is described as follows: LRRK2 G2019S enzyme inhibition, ADP-Glo kinase assay. Further details: purchased SignalChem L10-12GG. The following applies: ATP 25 μM. The class given is biochemical. Summed up:
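IC50 derived from luminescent ADP-Glo readout against untreated solvent control, twelve final compound concentrations from 50 μM downward. Reaction: recombinant human LRRK2 G2019S enzyme, 25 μM ATP, substrate, pH 7.4 Tris buffer with MgCl2/BSA/DTT, 25° C. for 2 hours.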

In the next assay the target is T3, TTK (Homo sapiens, UniProt P33981).
T3 sequence (P33981 1-857): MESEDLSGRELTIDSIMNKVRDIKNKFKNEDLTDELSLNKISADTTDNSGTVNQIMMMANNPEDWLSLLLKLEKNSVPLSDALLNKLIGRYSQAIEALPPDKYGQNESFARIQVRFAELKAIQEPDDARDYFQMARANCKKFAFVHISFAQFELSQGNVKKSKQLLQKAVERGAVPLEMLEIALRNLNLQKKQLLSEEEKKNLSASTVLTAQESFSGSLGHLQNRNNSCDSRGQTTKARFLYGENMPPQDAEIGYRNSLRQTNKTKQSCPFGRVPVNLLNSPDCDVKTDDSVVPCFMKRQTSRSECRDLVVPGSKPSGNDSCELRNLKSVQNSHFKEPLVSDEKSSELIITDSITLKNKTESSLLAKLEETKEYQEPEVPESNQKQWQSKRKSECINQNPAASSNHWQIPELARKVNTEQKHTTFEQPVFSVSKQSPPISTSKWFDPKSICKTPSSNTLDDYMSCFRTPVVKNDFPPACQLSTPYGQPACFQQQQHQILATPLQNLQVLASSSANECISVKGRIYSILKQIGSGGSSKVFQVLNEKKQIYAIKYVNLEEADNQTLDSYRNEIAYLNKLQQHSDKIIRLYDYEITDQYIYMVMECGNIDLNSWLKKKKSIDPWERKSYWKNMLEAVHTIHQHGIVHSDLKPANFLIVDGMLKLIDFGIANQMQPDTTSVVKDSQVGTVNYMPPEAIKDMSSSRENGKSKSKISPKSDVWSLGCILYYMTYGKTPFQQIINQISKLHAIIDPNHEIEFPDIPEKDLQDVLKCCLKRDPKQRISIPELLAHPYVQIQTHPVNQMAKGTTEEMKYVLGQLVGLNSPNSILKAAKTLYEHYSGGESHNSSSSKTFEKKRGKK
Kind of assay: TTK enzyme inhibition, ADP-Glo kinase assay. The class given is biochemical. Also noted: purchased SignalChem T20-10G. The following applies: ATP 5 μM. As to the method: To evaluate an inhibitory activity of the compound according to the present invention against LRRK2, LRRK2 (G2019S), DYRK1, CLK1, and TTK kinases, experiments were performed as follows.
Each of the Example compounds was reacted with a purified human TTK (SignalChem #T20-10G) enzyme to evaluate an ability to inhibit an enzyme using a method as described below. A composition of 40 mM Tris-HCl (pH 7.4), 20 mM MgCl2, 0.1 mg/mL BSA (a 5× kinase buffer, SignalChem #K03-09), and 50 μM DTT (SignalChem #D86-09B) was used as a reaction buffer, and all reactions of test substances were performed in the reaction buffer. Each of the compounds was diluted […] from a 10 mM DMSO stock using a serial dilution method, and enzyme activities were measured at final compound concentrations of 1, 0.333333, 0.111111, 0.037037, 0.012346, 0.004115, 0.001372, 0.000457, 0.000152, 0.000051, and 0.000017 μM. In the test, purified ATP (5 μM, Promega #V6930) and an MBP enzyme substrate (0.2 μg, SignalChem M42-51N) were reacted with a human TTK (7.5 ng) enzyme at 25° C. for 4 hours, and the enzyme activities were then determined using an in vitro ADP-Glo™ kinase assay (Promega #V6930). An enzyme-activity reaction solution, an ADP-Glo reaction solution, and an enzyme-ability detection solution were reacted at a ratio of 2:2:1 to measure a degree of inhibition of the enzyme activity with luminescence. The degree of inhibition of the enzyme activity according to the treatment concentration of each of the compounds was calculated based on the fluorescence of the enzyme activity of the solvent control which was not treated with the compound. In this case, the concentration of each of the compounds inhibiting 50% of the enzyme activity was determined to be an IC50 (nM) value, and calculated using Prism (Version 8.2 GraphPad) software.

A further assay has as its system MDA-MB-231 cell line. Kind of assay: Inhibition of proliferation of MDA-MB-231 cancer cells (Cell Titer-Glo). The class given is cell-based. Conditions: Homo sapiens, 72 hours. Summed up: (§2)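 Growth inhibition over 72 h: cells seeded at 2,000/well and dosed at eleven 3-fold-spaced final concentrations from 10.000000 μM. Read-out is ATP luminescence (Cell Titer-Glo, 10 min, room temperature), with GI50 derived from it.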
On the technique in general: ATP-based viability assays read luminescence as a measure of living cells.

Another assay has as its system SHP-77. Kind of assay: Inhibition of proliferation of SHP-77 cancer cells (Cell Titer-Glo). The assay is classed as cell-based. Conditions: Homo sapiens, SHP77, 72 hours. The method, boiled down: as §2

The structures appear in SMILES notation. Bounds are passed on as bounds.

Chain of LRRK2 (Q5S007 970-2527 limits assumed): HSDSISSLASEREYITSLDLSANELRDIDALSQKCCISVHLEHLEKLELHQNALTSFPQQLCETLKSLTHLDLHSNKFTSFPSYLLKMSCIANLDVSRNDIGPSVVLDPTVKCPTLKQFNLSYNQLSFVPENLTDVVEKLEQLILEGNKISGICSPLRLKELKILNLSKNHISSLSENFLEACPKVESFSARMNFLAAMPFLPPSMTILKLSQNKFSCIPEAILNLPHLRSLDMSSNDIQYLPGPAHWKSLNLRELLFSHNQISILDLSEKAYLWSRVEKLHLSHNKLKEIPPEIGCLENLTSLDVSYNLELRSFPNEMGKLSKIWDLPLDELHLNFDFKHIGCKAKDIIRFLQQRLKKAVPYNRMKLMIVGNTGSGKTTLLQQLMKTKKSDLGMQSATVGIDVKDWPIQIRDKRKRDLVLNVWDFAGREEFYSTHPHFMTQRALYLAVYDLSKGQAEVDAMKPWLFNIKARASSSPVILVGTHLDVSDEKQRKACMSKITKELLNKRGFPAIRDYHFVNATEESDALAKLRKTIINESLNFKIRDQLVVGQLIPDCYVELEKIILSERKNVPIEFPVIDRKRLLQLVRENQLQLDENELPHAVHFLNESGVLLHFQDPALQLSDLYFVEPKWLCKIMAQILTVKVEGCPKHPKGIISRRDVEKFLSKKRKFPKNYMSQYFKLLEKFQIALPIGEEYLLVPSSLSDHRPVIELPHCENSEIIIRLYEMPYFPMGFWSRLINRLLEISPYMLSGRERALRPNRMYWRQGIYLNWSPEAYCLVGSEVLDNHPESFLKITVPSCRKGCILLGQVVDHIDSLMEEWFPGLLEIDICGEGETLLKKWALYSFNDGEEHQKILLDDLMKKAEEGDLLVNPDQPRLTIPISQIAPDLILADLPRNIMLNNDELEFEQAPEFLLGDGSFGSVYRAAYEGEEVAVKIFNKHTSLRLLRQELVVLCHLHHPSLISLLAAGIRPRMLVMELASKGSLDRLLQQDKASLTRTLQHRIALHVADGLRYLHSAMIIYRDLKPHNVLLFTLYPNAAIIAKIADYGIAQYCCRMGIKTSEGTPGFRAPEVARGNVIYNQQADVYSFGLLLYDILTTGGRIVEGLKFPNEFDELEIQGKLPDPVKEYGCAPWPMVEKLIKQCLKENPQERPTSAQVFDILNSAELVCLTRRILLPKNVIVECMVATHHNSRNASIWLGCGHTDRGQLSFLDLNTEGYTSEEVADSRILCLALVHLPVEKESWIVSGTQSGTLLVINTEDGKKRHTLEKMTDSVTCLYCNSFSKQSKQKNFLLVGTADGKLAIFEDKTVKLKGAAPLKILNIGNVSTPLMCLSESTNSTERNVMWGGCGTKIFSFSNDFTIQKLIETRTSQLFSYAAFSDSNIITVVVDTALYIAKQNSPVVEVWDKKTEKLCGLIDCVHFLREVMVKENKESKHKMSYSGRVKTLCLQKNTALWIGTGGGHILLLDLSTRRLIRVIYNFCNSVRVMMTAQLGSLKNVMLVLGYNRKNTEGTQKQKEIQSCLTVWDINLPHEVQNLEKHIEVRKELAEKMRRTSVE
Chain of LRRK2 (G2019S) (Q5S007 970-2527 G2019S limits assumed): as the sequence (Q5S007 970-2527 limits assumed) above, with G1050S counted along it
T2 sequence (P49759 129-484 limits assumed): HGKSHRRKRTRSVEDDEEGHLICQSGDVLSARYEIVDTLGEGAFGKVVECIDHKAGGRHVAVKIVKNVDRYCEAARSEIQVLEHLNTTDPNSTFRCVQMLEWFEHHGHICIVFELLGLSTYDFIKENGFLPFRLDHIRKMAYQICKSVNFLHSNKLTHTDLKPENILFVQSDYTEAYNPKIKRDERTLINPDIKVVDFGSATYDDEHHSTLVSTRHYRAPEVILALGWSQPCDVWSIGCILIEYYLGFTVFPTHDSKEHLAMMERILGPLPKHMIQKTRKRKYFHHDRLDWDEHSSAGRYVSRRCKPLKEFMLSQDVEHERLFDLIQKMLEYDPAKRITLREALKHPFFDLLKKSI

Take `COCCNc1nc(Nc2ccc(C(=O)N3C[C@@H]4C[C@H]3CO4)c3c2OCCO3)nc2[nH]cc(C(F)(F)F)c12` [Example 410, ((LS,4S)-2-oxa-5-azabicyclo[2.2.1]heptan-5-yl)(8-((4-((2-methoxy-ethyl)amino)-5-(trifluoromethyl)-7H-pyrrolo[2,3-d]pyrimidin-2-yl)amino)-2,3-dihydrobenzo[b] [1,4]dioxin-5-yl)methanone]: the inhibition at 0.5 µM with IL-6 amounted to 17.8%. Also, the IC50 at human GST-DYRK1A, against LRRK2 and at human GST-CLK1 was less than 100 nM each time.

Consider `CNc1nc(Nc2ccc(C(=O)N3CC[C@@H](N4CCOCC4)C3)c3c2OCC3)nc2[nH]cc(C(F)(F)F)c12` [Example 237, (R)-(7-((4-(methylamino)-5-(trifluoromethyl)-7H-pyrrolo[2,3-d]pyrimidin-2-yl)amino)-2,3-dihydrobenzofuran-4-yl)(3-morpholinopyrrolidin-1-yl)methanone], for which the inhibition at 0.5 µM in the assay with IL-6 worked out at 41.1%; in the assay with TNF-α, 18.9%. The IC50 on human GST-DYRK1A, against LRRK2, against LRRK2 (G2019S) and against human GST-CLK1 was less than 100 nM in each case.

`CC(C)CNc1nc(Nc2ccc(C(=O)N3CCC(N4CCOCC4)CC3)c3c2OCC3)nc2[nH]cc(C(F)(F)F)c12` [Example 448, (7-((4-(iso-butylamino)-5-(trifluoromethyl)-7H-pyrrolo[2,3-d]pyrimidin-2-yl)amino)-2,3-dihydrobenzo-furan-4-yl)(4-morpho-linopiperidin-1-yl)methanone]: the inhibition at 0.5 µM with IL-6 turned out to be 26.2%; in the assay with TNF-α it was 17.7%. Besides, the IC50 on human GST-DYRK1A is 101 to 300 nM; at LRRK2, less than 100 nM; on LRRK2 (G2019S), less than 100 nM; on human GST-CLK1, less than 100 nM.

As for `CC[C@@H](C)Nc1nc(Nc2ccc(S(=O)(=O)N3CCOCC3)cc2OC)nc2[nH]cc(C#N)c12` [Example 67, (R)-4-(sec-butylamino)-2-((2-methoxy-4-(morpholinosulfonyl)phenyl)amino)-7H-pyrrolo[2,3-d]pyrimidine-5-carbonitrile], the figures for the half-inhibitory concentration (IC50) at TTK, on human GST-DYRK1A and at human GST-CLK1 were less than 100 nM, 301 to 1000 nM and 301 to 1000 nM, respectively. Besides, the 50% growth inhibitory concentration (GI50) in the assay on MDA-MB-231 cell line and in the assay with SHP-77 was less than 50 nM throughout.

As for `COCCNc1nc(Nc2ccc(C(=O)N3CCC(N4CCOCC4)CC3)c3c2OCCO3)nc2[nH]cc(C(F)(F)F)c12` [Example 366, (8-((4-((2-methoxyethyl)amino)-5-(trifluoromethyl)-7H-pyrrolo[2,3-d]pyrimidin-2-yl)amino)-2,3-dihydrobenzo[b] [1,4]dioxin-5-yl) (4-morpholino-piperidin-1-yl)methanone], the results for the inhibition at 0.5 µM in the assay on IL-6 and with TNF-α were 1.1% and 19.2%, respectively. In addition, the IC50 at human GST-DYRK1A, against LRRK2, on LRRK2 (G2019S) and on human GST-CLK1 was less than 100 nM throughout.

Consider `O=C(c1ccc(Nc2nc(NC3CCOCC3)c3c(C(F)(F)F)c[nH]c3n2)c2c1OCCO2)N1CCN(C2COC2)CC1` [Example 420, (4-(oxetan-3-yl)piperazin-1-yl)(8-((4-((tetrahydro-2H-pyran-4-yl)amino)-5-(trifluoromethyl)-7H-pyrrolo[2,3-d]pyrimidin-2-yl)amino)-2,3-dihydrobenzo[b] [1,4]dioxin-5-yl)methanone], for which the inhibition at 0.5 µM was 20.2% in the assay with IL-6 and 31.6% in the assay with TNF-α. The IC50 at human GST-DYRK1A, against LRRK2 and against human GST-CLK1 was less than 100 nM each time.

In the case of `CCNc1nc(Nc2ccc(C(=O)N3CCOCC3)c3c2OCO3)nc2[nH]cc(C(F)(F)F)c12` [Example 212, (7-((4-(ethylamino)-5-(trifluoromethyl)-7H-pyrrolo[2,3-d]pyrimidin-2-yl)amino)benzo[d][1,3]dioxol-4-yl)(morpholino)methanone], the inhibition at 0.5 µM in the assay on IL-6 amounted to 12.6%. Further, the half-maximal inhibitory concentration (IC50) at human GST-DYRK1A, at LRRK2, against LRRK2 (G2019S) and on human GST-CLK1 was less than 100 nM each time.

For orientation: IC50 means the concentration that gives 50% inhibition. The GI50 is the concentration at which growth is held to half of that of the control. High values mean less potent growth inhibition, low ones more potent growth inhibition.
